Laboratory results from patent publication US20120122969A1, “TREATMENT OF PERVASIVE DEVELOPMENTAL DISORDERS WITH TOCOTRIENOLS OR TOCOTRIENOL ENRICHED EXTRACTS” (AMPERE LIFE SCIENCES, INC., priority 2009, published 2012).

System: Human Dermal Fibroblasts from Autistic Patients
Assay: Rescue of ASD fibroblasts stressed by addition of L-buthionine-(S,R)-sulfoximine (BSO), Calcein AM viability readout
Assay type: cell-based
Settings: 1 mM BSO, 48 hours, Calcein AM fluorescence, viability relative to non-BSO treated fibroblasts (100%); read-out: EC50 of protection against ASD (rescue of BSO-stressed ASD fibroblasts)
Description: A screen was performed to identify compounds effective for the amelioration of ASD. Test samples, and solvent controls were tested for their ability to rescue ASD fibroblasts stressed by addition of L-buthionine-(S,R)-sulfoximine (BSO).
MEM (a medium enriched in amino acids and vitamins, catalog no. Gibco 11965) and Fetal Calf Serum were obtained from Invitrogen. Basic fibroblast growth factor and epidermal growth factor were purchased from PeproTech. Penicillin-streptomycin-glutamine mix, L-buthionine (S,R)-sulfoximine, and insulin from bovine pancreas were purchased from Sigma. Calcein AM was purchased from Molecular Probes. Cell culture medium (ATP) was made by combining 75 ml Fetal Calf Serum, 100 U/ml penicillin, 100 μg/ml streptomycin, 2 mM glutamine, 10 ng/ml EGF, and 10 ng/ml bFGF; MEM EBS was added to make the volume up to 500 ml. A 10 mM BSO solution was prepared by dissolving 444 mg BSO in 200 ml of medium with subsequent filter-sterilization. […]
100 μl of PBS containing 1.2 μM Calcein AM were then added to each well. […] After that time the PBS was discarded, the plate gently tapped on a paper towel and fluorescence (excitation/emission wavelengths of 485 nm and 525 nm, respectively) was read on a Gemini fluorescence reader. […]
The viability of non-BSO treated fibroblasts was set as 100%, and the viability of the BSO- and compound-treated cells was calculated as relative to this value.

alpha-tocotrienol
EC50: < 50 nM
